Experiments:
Format in all cases: functional
Rattus norvegicus [1] = assay: Tested for % inhibition in carrageenan-induced rat paw adema after intraperitoneal administration of 100 mg/kg dose at 3.5 hours; conditions: ip
Rattus norvegicus [2] = assay: Tested for % inhibition in carrageenan-induced rat paw adema after peroral administration of 100 mg/kg dose at 2 hours; conditions: route oral
Rattus norvegicus [3] = assay: Tested for % inhibition in carrageenan-induced rat paw adema after intraperitoneal administration of 100 mg/kg dose at 2 hours; conditions: ip
Rattus norvegicus [4] = assay: Tested for % inhibition in carrageenan-induced rat paw adema after peroral administration of 100 mg/kg dose at 3.5 hours; conditions: route oral

| Compound | inhibition in vivo at 100 mg/kg (Rattus norvegicus [1]) [%] | inhibition in vivo at 100 mg/kg (Rattus norvegicus [2]) [%] | inhibition in vivo at 100 mg/kg (Rattus norvegicus [3]) [%] | inhibition in vivo at 100 mg/kg (Rattus norvegicus [4]) [%] |
| --- | --- | --- | --- | --- |
| CCNc1nnc(-c2nsc3ccccc23)o1 | 42 | 53 | 65 | 29 |
| CCn1c(S)nnc1-c1nsc2ccccc12 | 50 | 57 | 64 | 32 |
| CCc1nnc(-c2nsc3ccccc23)o1 | 10 | 10 | 10 | 18 |
| CC(C)Cc1ccc(C(C)C(=O)O)cc1 (stereo not drawn) [IBUPROFEN] | 74 | 62 | 70 | 65 |
| Clc1ccc(-c2nnc(-c3nsc4ccccc34)o2)cc1 | 33 | 13 | 50 | 24 |
| Cc1nnc(-c2nsc3ccccc23)o1 | 42 | 43 | 69 | 21 |
| c1ccc(-c2nnc(-c3nsc4ccccc34)s2)cc1 | 10 | 10 | 21 | 22 |
| CNc1nnc(-c2nsc3ccccc23)o1 | 60 | 10 | 67 | 10 |
| c1ccc(Nc2nnc(-c3nsc4ccccc34)s2)cc1 | 48 | 8 | 62 | 10 |
| c1ccc(Nc2nnc(-c3nsc4ccccc34)o2)cc1 | 48 | 56 | 67 | 27 |
| Sc1nnc(-c2nsc3ccccc23)n1-c1ccccc1 | 60 | 10 | 81 | 10 |
| CCNc1nnc(-c2nsc3ccccc23)s1 | 50 | 34 | 59 | 25 |
| Clc1ccc(Nc2nnc(-c3nsc4ccccc34)o2)cc1 | 40 | 14 | 48 | 10 |
| COc1ccc(-c2nnc(-c3nsc4ccccc34)o2)cc1 | 33 | 21 | 45 | 29 |
| COc1ccc(Nc2nnc(-c3nsc4ccccc34)o2)cc1 | 50 | 28 | 59 | 33 |
| CCc1nnc(-c2nsc3ccccc23)s1 | 10 | 10 | 10 | 12 |
| c1ccc(-c2nnc(-c3nsc4ccccc34)o2)cc1 | 48 | 60 | 60 | 32 |

— ChEMBL document CHEMBL1126523, “Synthesis and antiflammatory activity of some 3-heterocycle-1,2-benzisothiazoles” (1993)
